Measurements reported in US20250179052A1, “PYRIMIDINYL-OXY-QUINOLINE BASED HERBICIDAL COMPOUNDS” (SYNGENTA CROP PROTECTION AG, priority 2022, published 2025).

What was measured:
Details in all cases: 250 g/ha, evaluated after 13 days, five-point scale
[1] = tested on: Amaranthus retoflexus (AMARE); test: Post-emergence herbicidal glasshouse test; type: in vivo
AMAPA [2] = test: Post-emergence herbicidal glasshouse test; type: in vivo, Amaranthus tuberculatus
[3] = tested on: Echinochloa crus-galli (ECHCG); test: Post-emergence herbicidal glasshouse test; type: in vivo
[4] = tested on: Ipomoea hederacea (IPOHE); test: Post-emergence herbicidal glasshouse test; type: in vivo
Setaria faberi (SETFA) [5] = test: Post-emergence herbicidal glasshouse test; type: in vivo
[6] = tested on: Amaranthus retoflexus (AMARE); test: Pre-emergence herbicidal glasshouse test; type: in vivo
AMAPA [7] = test: Pre-emergence herbicidal glasshouse test; type: in vivo, Amaranthus tuberculatus
[8] = tested on: Echinochloa crus-galli (ECHCG); test: Pre-emergence herbicidal glasshouse test; type: in vivo
[9] = tested on: Ipomoea hederacea (IPOHE); test: Pre-emergence herbicidal glasshouse test; type: in vivo
Setaria faberi (SETFA) [10] = test: Pre-emergence herbicidal glasshouse test; type: in vivo

Compound	percentage damage caused to the plant, AMARE [1]	percentage damage caused to the plant, AMAPA (AMAPA [2])	percentage damage caused to the plant, ECHCG [3]	percentage damage caused to the plant, IPOHE [4]	percentage damage caused to the plant, SETFA (Setaria faberi (SETFA) [5])	percentage damage caused to the plant, AMARE [6]	percentage damage caused to the plant, AMAPA (AMAPA [7])	percentage damage caused to the plant, ECHCG [8]	percentage damage caused to the plant, IPOHE [9]	percentage damage caused to the plant, SETFA (Setaria faberi (SETFA) [10])
Cc1nc(C(F)(F)F)nc2cccc(Oc3ncc(Cl)cn3)c12 [Compound 1.001, 5-(5-chloropyrimidin-2-yl)oxy-4-methyl-2-(trifluoromethyl)quinazoline]	5 (5=81-100%)	5 (5=81-100%)	3 (3=41-60%)	2 (2=21-40%)	4 (4=61-80%)	5 (5=81-100%)	5 (5=81-100%)	3 (3=41-60%)	5 (5=81-100%)	3 (3=41-60%)
FC(F)(F)c1ncc2c(Oc3ncc(Cl)cn3)cccc2n1 [Compound 1.002, 5-(5-chloropyrimidin-2-yl)oxy-2-(trifluoromethyl)quinazoline]	5 (5=81-100%)	5 (5=81-100%)	5 (5=81-100%)	4 (4=61-80%)	4 (4=61-80%)	5 (5=81-100%)	5 (5=81-100%)	5 (5=81-100%)	5 (5=81-100%)	5 (5=81-100%)
N#Cc1cc(Cl)cnc1Oc1cccc2nc(C(F)(F)F)ncc12 [Compound 1.007]	2 (2=21-40%)		3 (3=41-60%)	2 (2=21-40%)	4 (4=61-80%)	4 (4=61-80%)	4 (4=61-80%)	4 (4=61-80%)	2 (2=21-40%)	5 (5=81-100%)
Fc1cnc(Oc2cccc3nc(C(F)(F)F)ccc23)nc1 [Compound 1.042]	5 (5=81-100%)	5 (5=81-100%)	4 (4=61-80%)	4 (4=61-80%)		5 (5=81-100%)	5 (5=81-100%)	5 (5=81-100%)	5 (5=81-100%)	
Fc1cnc(Oc2ccc(Cl)c3nc(C(F)(F)Cl)ncc23)nc1 [Compound 1.043]	3 (3=41-60%)	3 (3=41-60%)	1 (1=0-20%)	2 (2=21-40%)		4 (4=61-80%)	4 (4=61-80%)	1 (1=0-20%)	1 (1=0-20%)	
Fc1cnc(Oc2ccc(Cl)c3nc(C(F)F)ncc23)nc1 [Compound 1.046]	2 (2=21-40%)	1 (1=0-20%)	1 (1=0-20%)	2 (2=21-40%)		5 (5=81-100%)	4 (4=61-80%)	1 (1=0-20%)	1 (1=0-20%)	
Cc1ccc(Oc2ncc(F)cn2)c2cnc(C(F)(F)Cl)nc12 [Compound 1.049]	2 (2=21-40%)	3 (3=41-60%)	1 (1=0-20%)	2 (2=21-40%)		1 (1=0-20%)	1 (1=0-20%)	1 (1=0-20%)	1 (1=0-20%)	
Cc1nc(C(F)F)nc2cccc(Oc3ncc(Br)cn3)c12 [Compound 1.051]	1 (1=0-20%)	1 (1=0-20%)	1 (1=0-20%)	1 (1=0-20%)		1 (1=0-20%)	1 (1=0-20%)	1 (1=0-20%)	1 (1=0-20%)	
Cc1nc(C(F)F)nc2cccc(Oc3ncc(F)cn3)c12 [Compound 1.052]	1 (1=0-20%)	1 (1=0-20%)	1 (1=0-20%)	2 (2=21-40%)		2 (2=21-40%)	1 (1=0-20%)	2 (2=21-40%)	1 (1=0-20%)	
FC(F)c1ncc2c(Oc3ncc(Cl)cn3)ccc(Cl)c2n1 [Compound 1.054]	2 (2=21-40%)	2 (2=21-40%)	1 (1=0-20%)	1 (1=0-20%)		5 (5=81-100%)	5 (5=81-100%)	2 (2=21-40%)	1 (1=0-20%)	
FC(F)(Cl)c1ncc2c(Oc3ncc(Br)cn3)cccc2n1 [Compound 1.055, 5-(5-bromopyrimidin-2-yl)oxy-2-[chloro(difluoro)methyl]quinazoline]	2 (2=21-40%)	3 (3=41-60%)	2 (2=21-40%)	2 (2=21-40%)		5 (5=81-100%)	5 (5=81-100%)	4 (4=61-80%)	2 (2=21-40%)	
Cc1cnc(Oc2cccc3nc(C(F)(F)Cl)ncc23)nc1 [Compound 1.056, 2-[chloro(difluoro)methyl]-5-(5-methylpyrimidin-2-yl)oxy-quinazoline]	2 (2=21-40%)	4 (4=61-80%)	3 (3=41-60%)	4 (4=61-80%)		5 (5=81-100%)	5 (5=81-100%)	5 (5=81-100%)	5 (5=81-100%)	
FC(F)(Cl)c1ncc2c(Oc3ncc(Cl)cn3)cccc2n1 [Compound 1.057]	4 (4=61-80%)	4 (4=61-80%)	4 (4=61-80%)	4 (4=61-80%)		5 (5=81-100%)	5 (5=81-100%)	5 (5=81-100%)	5 (5=81-100%)	
Fc1cnc(Oc2cccc3nc(C(F)F)ncc23)nc1 [Compound 1.058]	2 (2=21-40%)	2 (2=21-40%)	1 (1=0-20%)	4 (4=61-80%)		5 (5=81-100%)	5 (5=81-100%)	1 (1=0-20%)	3 (3=41-60%)	
Fc1cnc(Oc2cccc3nc(C(F)(F)Cl)ncc23)nc1 [Compound 1.061, 2-[chloro(difluoro)methyl]-5-(5-fluoropyrimidin-2-yl)oxy-quinazoline]	4 (4=61-80%)	4 (4=61-80%)	4 (4=61-80%)	4 (4=61-80%)		5 (5=81-100%)	5 (5=81-100%)	5 (5=81-100%)	5 (5=81-100%)	
N#Cc1ccc(Oc2ncc(Cl)cn2)c2cnc(C(F)(F)F)nc12 [Compound 1.065]	1 (1=0-20%)	1 (1=0-20%)	1 (1=0-20%)	2 (2=21-40%)		1 (1=0-20%)	1 (1=0-20%)	1 (1=0-20%)	1 (1=0-20%)	
Cc1cc(C(F)(F)F)nc2cccc(Oc3ncc(Cl)cc3F)c12 [Compound 1.066]	1 (1=0-20%)	1 (1=0-20%)	1 (1=0-20%)	1 (1=0-20%)		1 (1=0-20%)	1 (1=0-20%)	1 (1=0-20%)	1 (1=0-20%)	
